Measurements published in US20200017495A1, “NOVEL HETEROCYCLIC COMPOUNDS AND THEIR USE IN PREVENTING OR TREATING BACTERIAL INFECTIONS” (priority 2017, published 2020).

What was measured:
Test in all cases: MIC of compounds alone and combined with antibacterials, broth microdilution (CLSI)
Assay type in all cases: cell-based
[1] = system: Klebsiella pneumoniae (KPN) isolates
Outline: (§1)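 Broth microdilution in cation-adjusted Mueller-Hinton broth, inoculum 5.10^5 CFU/mL, 16-20 h at 35° C in ambient air, on genotyped isolates. Compound MIC, alone or with an antibacterial, taken visually as lowest concentration preventing growth; antibacterial MIC determined at each compound concentration.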

[2] = system: Morganella morganii (MMO) isolates
Outline: as §1

[3] = system: Citrobacter freundii (CFR) isolates
Outline: as §1

## CO/N=C(\C(=O)N[C@@H]1C(=O)N2C(C(=O)O)=C(COC(N)=O)CS[C@H]12)c1ccco1 [FUR, Cefuroxime]
[1]; strain KPN 6299, genotype TEM-1, SHV-11, OXA-163
  MIC: >512 µg/mL
[1]; strain KPN 110376, genotype TEM-1, SHV-1, CTX-M-15, OXA-1, OXA-48
  MIC: >256 µg/mL
[1]; strain KPN 121206, genotype SHV-1, NDM-1
  MIC: >256 µg/mL
[1]; strain KPN 131119, genotype TEM-1, SHV-11, CTX-M-15, OXA-1, OXA-48
  MIC: >256 µg/mL
[1]; strain KPN 140513, genotype TEM-1, SHV-11, CTX-M-15, KPC-3
  MIC: >256 µg/mL
[1]; strain KPN 160143, genotype TEM-1, SHV-1, CTX-M-15, KPC-2, OXA-1
  MIC: >256 µg/mL
[1]; strain KPN 190128, genotype TEM-1, SHV-32, CTX-M-15, OXA-1
  MIC: >256 µg/mL
[1]; strain KPN 190270, genotype TEM-1, SHV-76, CTX-M-15, OXA-1
  MIC: >256 µg/mL
[1]; strain KPN 190425, genotype TEM-1, SHV-1, CTX-M-15, OXA-1
  MIC: >256 µg/mL
[1]; strain KPN 190551, genotype TEM-1, SHV-1, CTX-M-15, OXA-1
  MIC: >256 µg/mL
[1]; strain KPN 200047, genotype TEM-1, SHV-32, CTX-M-15, OXA-1
  MIC: >256 µg/mL
[1]; strain KPN 200327, genotype TEM-1, SHV-1, CTX-M-15, OXA-1
  MIC: >256 µg/mL
[1]; strain KPN 260251, genotype TEM-1, SHV-11, SHV-12, CTX-M-15, KPC-2
  MIC: >256 µg/mL
[1]; strain KPN 260252, genotype TEM-1, SHV-11, KPC-3
  MIC: >256 µg/mL
[1]; strain KPN 260376, genotype SHV-1, SHV-49, OXA-1
  MIC: >256 µg/mL
[1]; strain KPN 270077, genotype TEM-1, SHV-1, CTX-M-15
  MIC: >256 µg/mL
[1]; strain KPN 700603, genotype SHV-18, OXA-2
  MIC: 32 µg/mL
[1]; strain KPN ARA, genotype TEM-1, SHV-11, CTX-M-15, OXA-1, OXA-48
  MIC: >256 µg/mL
[1]; strain KPN BAA-1898, genotype TEM-1, SHV-11, SHV-12, KPC-2
  MIC: >512 µg/mL
[1]; strain KPN LIB, genotype SHV-11, OXA-48
  MIC: 16 µg/mL
[1]; strain KPN UFR22_O, genotype TEM-1, SHV-1, OXA-48
  MIC: 32 µg/mL
[1]; strain KPN UFR23, genotype TEM-1, SHV-1, OXA-48
  MIC: 8 µg/mL
[1]; strain KPN UFR24, genotype TEM-1, SHV-2, SHV-11, OXA-1, OXA-48, OXA-47
  MIC: 128 µg/mL
[1]; strain KPN UFR25, genotype TEM-1, SHV-11, CTX-M-15, OXA-162
  MIC: >256 µg/mL
[1]; strain KPN UFR27, genotype TEM-1, SHV-28, CTX-M-15, OXA-204
  MIC: >256 µg/mL
[1]; strain KPN UFR28, genotype TEM-1, SHV-1, CTX-M-15, OXA-1, OXA-232
  MIC: >256 µg/mL
[1]; strain KPN UFR42, genotype SHV-2, CTX-M-15 OXA-1, OXA-181, NDM-1
  MIC: >256 µg/mL
[1]; strain KPN UFR65, genotype TEM-1, SHV-11, KPC-2
  MIC: >256 µg/mL
[1]; strain KPN UFR66, genotype TEM-1, SHV-11, CTX-M-15, KPC-2
  MIC: >256 µg/mL
[1]; strain KPN UFR67, genotype TEM-1, SHV-11, KPC-3
  MIC: >256 µg/mL
[1]; strain KPN UFR68, genotype TEM-1, SHV-11, CTX-M-15, KPC-3
  MIC: >256 µg/mL
[1]; strain KPN UFR76, genotype TEM-155, SHV-11, ACT-1, OXA-2
  MIC: >256 µg/mL
[1]; strain KPN UFR77, genotype CMY-2
  MIC: 64 µg/mL
[1]; strain KPN UFR78, genotype TEM-1, SHV-1, CTX-M-15, CMY-2, OXA-1, OXA-48
  MIC: >256 µg/mL
[1]; strain KPN UFR79, genotype DHA-1, OXA-1
  MIC: >256 µg/mL
[1]; strain KPN UFR80, genotype SHV-11, DHA-1, OXA-1
  MIC: 32 µg/mL
[1]; strain KPN UFR81, genotype TEM-1, SHV-1, DHA-1, OXA-48
  MIC: >256 µg/mL
[1]; strain KPN UFR215, genotype SHV-27, CTX-M-15
  MIC: >256 µg/mL
[1]; strain KPN UFR216, genotype SHV-28, CTX-M-15
  MIC: >256 µg/mL
[1]; strain KPN UFR217, genotype TEM-1, SHV-1, CTX-M-15
  MIC: >256 µg/mL
[1]; strain KPN UFR219, genotype SHV-12, CTX-M-15
  MIC: >256 µg/mL
[1]; strain KPN UFR220, genotype TEM-1, SHV-12, DHA-1
  MIC: >256 µg/mL
[1]; strain KPN UFR221, genotype TEM-1, SHV-11, CTX-M-14, DHA-1
  MIC: >256 µg/mL
[1]; strain KPN UFR222, genotype DHA-2
  MIC: >256 µg/mL
[1]; strain KPN UFR227O, genotype TEM-x, SHV-x, CTX-M-x
  MIC: >256 µg/mL
[2]; strain MMO 200321, genotype TEM-1, CTX-M-15, OXA-1
  MIC: >256 µg/mL
[2]; strain MMO UFR144, genotype TEM-1, CTX-M-15
  MIC: >256 µg/mL
[2]; strain MMO UFR240, genotype CTX-M-9
  MIC: >256 µg/mL
[2]; strain MMO UFR241, genotype TEM-1, CTX-M-15
  MIC: >256 µg/mL
[2]; strain MMO UFR242, genotype TEM-52
  MIC: >256 µg/mL
[2]; strain MMO UFR243, genotype DHA-1
  MIC: 128 µg/mL
[2]; strain MMO UFR244, genotype DHA-1
  MIC: 64 µg/mL
[2]; strain MMO UFR245, genotype DHA-1
  MIC: 128 µg/mL
[2]; strain MMO UFR246, genotype DHA-1
  MIC: 128 µg/mL
[2]; strain MMO UFR247, genotype DHA-1
  MIC: >256 µg/mL
[3]; strain CFR UFR10, genotype OXA-48
  MIC: >256 µg/mL
[3]; strain CFR UFR11, genotype TEM-1, OXA-1, OXA-48
  MIC: >256 µg/mL
[3]; strain CFR UFR83, genotype TEM-3, AmpC
  MIC: >256 µg/mL
[3]; strain CFR UFR146, genotype TEM-1, KPC-2
  MIC: >256 µg/mL
[3]; strain CFR UFR248, genotype CTX-M-15
  MIC: >256 µg/mL
[3]; strain CFR UFR249, genotype TEM-1, CTX-M-15
  MIC: >256 µg/mL
[3]; strain CFR UFR250, genotype TEM-1, SHV-28, CTX-M-15
  MIC: >256 µg/mL
[3]; strain CFR UFR253, genotype TEM-1, SHV-12, OXA-48
  MIC: 32 µg/mL
[3]; strain CFR UFR254, genotype VEB-1b, OXA-48, qnrA
  MIC: 32 µg/mL
